Patent US8178704B2, “Inositol-phosphate derivatives and method of detecting inositol-1-phosphate” (CIS Bio International, priority 2004, dated 2012)
“Also recorded” adds a separate entry of the source.

How the values were obtained:
[1] = system: anti-IP1 antibody labeled with europium cryptate; assay: HTRF test, specificity of the anti-IP1 antibodies (competition with IP1-CY5); type: binding; conditions: competition with IP1-CY5 conjugate; FIG. 12
Procedure: All the solutions are prepared in 100 mM HEPES buffer pH 7 containing 0.1% BSA and 0.4 M KF.NB. 50 μl of solution of competitors are distributed into the wells of a black bottom microtiter plate so as to obtain the following final concentrations: myo-inositol (10 nM to 1 mM), IP1 Sigma (1 nM to 1 mM), IP2 (1 nM to 100 μM), IP3 (1 nM to 100 μM), PiP2 (1 nM to 100 μM). 50 μl of a 10 nM solution of IP1-CY5 conjugate of Example 10, 50 μl of a solution containing 1.5 nM of an anti-IP1 antibody labeled beforehand with europium cryptate are then distributed in the order indicated. Two wells are also distributed in which the 50 μl of competitors are replaced with 50 μl of buffer so as to constitute blanks (negative controls). The mixture is incubated for 2 h at 4° C. and a time-resolved fluorescence measurement is performed (td=50 μs, tg=400 μs) at 620 nm and 665 nm on a Rubystar® apparatus (BMG Labtech). The ΔF values are calculated using the blank values as reference. The percentages of inhibition obtained with the various competitors are then calculated with the delta F values taking, as 100% value, the signal obtained in the presence of an excess of the IP1 competitor.

anti-IP1 antibodies = assay: Specificity of the anti-IP1 antibodies evaluated by competition ELISA; type: binding, mouse; conditions: competition with plate-bound IP1-biotin; competitors 1 nM to 100 μM (myo-inositol 10 nM to 1 mM)
Procedure: NUNC 96-well microtiter plates coated with streptavidin (13 pmol/well) are used. 100 μl of IP1-biotin conjugate prepared according to Example 9 at a concentration of 0.25 μg/ml are distributed and the mixture is incubated for 2 h 30 min at room temperature with stirring. The mixture is washed three times with water containing 0.1% Tween20. 50 μl of solutions of competitors are added so as to prepare the following final concentration ranges: myo-inositol (10 nM at 1 mM), IP1 Sigma (1 nM to 100 μM), IP2 (1 nM to 100 μM), IP3 (1 nM to 100 μM), PiP2 (1 nM to 100 μM) as well as 50 μl of culture supernatants secreting anti-IP1 antibodies. The mixture is incubated for 16 h at 4° C. and then washed three times with water containing 0.1% Tween20. 100 μl of conjugate anti-IgG (mouse)-peroxidase (Sigma # A 0168) diluted 1/60 000 in PBS 0.3% BSA are added. The mixture is incubated for 1 h at room temperature with stirring and then three washes are performed with 10 PBS 0.1% Tween20. 100 μl of TMB substrate (Sigma # T 8665) are distributed and the mixture is incubated for 30 min at room temperature with stirring and then 100 μl of stop reagent (Sigma # S5814) are distributed and the optical densities are measured at 450 nm.
The optical density at 450 nm is plotted against the logarithm of the concentration of compound whose competition it is desired to test. For all the compounds tested in competition, the maximum optical density OD450˜1.5 is observed at the lowest concentrations (1 nM).

mGlu5 receptor = assay: IP1 assay (TR-FRET) on HEK-293 cells expressing the mGlu5 receptor, effect of an inverse agonist; type: cell-based; conditions: MPEP 5 nM to 100 μM, 1 hour; FIGS. 16A, 16B
Procedure: Incubation is performed for 1 hour at 37° C., 5% CO2.
When the constitutive activity of the mGluR5 receptor is blocked by the addition of MPEP, that will lead to a decrease in the production of intracellular IP1. […] This signal may be either the intensity ratio E665/E620 or the delta F.

mGlu1 receptor = biological target: T1, mGlu1 receptor (Homo sapiens, UniProt Q13255); assay: IP1 assay (TR-FRET) on HEK-293 cells transiently expressing the mGlu1 receptor, effect of a positive allosteric modulator; type: cell-based; conditions: Ro 01-6128 100 nM to 3 mM, 30 min; FIGS. 15A, 15B
T1 construct: expressed in transfected cells; host or cells: HEK-293 cells, transient, electroporation
T1 sequence (Q13255 19-1194): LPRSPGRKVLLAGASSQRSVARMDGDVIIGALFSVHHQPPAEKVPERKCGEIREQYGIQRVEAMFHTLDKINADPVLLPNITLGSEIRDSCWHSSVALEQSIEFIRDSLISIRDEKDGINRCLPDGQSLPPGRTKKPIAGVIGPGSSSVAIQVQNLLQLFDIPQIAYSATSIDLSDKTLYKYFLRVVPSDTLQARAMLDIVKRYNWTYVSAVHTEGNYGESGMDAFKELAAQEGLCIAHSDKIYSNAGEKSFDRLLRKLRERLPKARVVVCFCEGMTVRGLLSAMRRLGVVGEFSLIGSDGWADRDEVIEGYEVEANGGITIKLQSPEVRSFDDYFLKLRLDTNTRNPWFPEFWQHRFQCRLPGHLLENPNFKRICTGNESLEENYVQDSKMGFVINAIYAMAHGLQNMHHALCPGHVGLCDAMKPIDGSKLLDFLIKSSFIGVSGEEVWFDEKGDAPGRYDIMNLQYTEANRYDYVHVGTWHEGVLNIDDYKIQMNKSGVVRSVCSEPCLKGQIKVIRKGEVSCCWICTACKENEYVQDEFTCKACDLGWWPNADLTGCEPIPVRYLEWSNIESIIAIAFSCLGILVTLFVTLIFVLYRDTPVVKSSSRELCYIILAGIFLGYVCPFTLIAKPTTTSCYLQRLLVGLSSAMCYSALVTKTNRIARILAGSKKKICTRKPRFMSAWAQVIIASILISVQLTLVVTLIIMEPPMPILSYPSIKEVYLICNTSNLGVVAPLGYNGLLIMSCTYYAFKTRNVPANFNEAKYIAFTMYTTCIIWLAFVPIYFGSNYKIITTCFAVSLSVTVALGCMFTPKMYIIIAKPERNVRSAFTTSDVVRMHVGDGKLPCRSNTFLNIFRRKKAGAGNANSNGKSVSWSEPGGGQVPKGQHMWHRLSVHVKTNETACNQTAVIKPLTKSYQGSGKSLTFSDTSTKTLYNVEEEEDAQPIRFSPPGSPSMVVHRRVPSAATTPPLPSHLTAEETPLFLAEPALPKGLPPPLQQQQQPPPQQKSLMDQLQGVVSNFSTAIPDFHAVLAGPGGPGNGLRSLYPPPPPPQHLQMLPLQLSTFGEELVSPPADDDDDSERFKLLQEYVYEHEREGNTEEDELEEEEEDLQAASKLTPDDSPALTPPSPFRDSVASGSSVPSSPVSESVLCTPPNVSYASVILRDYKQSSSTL
Procedure: Incubation is performed for 3 h at 37° C., 5% CO2, saturated with moisture, before changing the medium for 100 μl of DMEM containing glutamax (glutamine not degradable to glutamate) and free of serum. Incubation is performed overnight at 37° C. in an incubator containing 5% CO2, saturated with moisture.
This signal may be either the intensity ratio E665/E620, or the delta F.

For O=P(O)(O)OC1[C@H](O)[C@H](O)C(O)[C@H](O)[C@H]1O (stereo partly drawn) [IP1], the “inhibition of the signal by the competitor (HTRF, delta F)” value [1] was “only the use of IP1 as competitor makes it possible to measure inhibition of the signal” and the “decrease in the signal (optical density at 450 nm) caused by the competitor” value (“decrease in the signal” for short) (anti-IP1 antibodies) was “induces a reduction in the signal for concentrations below the micromolar range; also recorded: only the use of IP1 as competitor makes it possible to measure inhibition of the signal”.
With Cc1cccc(C#Cc2ccccc2)n1 [MPEP, 2-methyl-6-(phenylethynyl)pyridine] the “TR-FRET signal (E665/E620 ratio or delta F) as a function of inverse agonist concentration” value (mGlu5 receptor) was “the signal for the assay will increase as a function of the concentration of inverse agonist”.
For CCOC(=O)NC(=O)C(c1ccccc1)c1ccccc1 [PAM], the “TR-FRET signal (E665/E620 ratio or delta F) as a function of PAM concentration” value (mGlu1 receptor) was “the signal will decrease as a function of the PAM concentration”.
In the case of O[C@H]1[C@H](O)[C@@H](O)[C@H](O)[C@@H](O)[C@H]1O [myo-inositol], the “decrease in the signal” value (anti-IP1 antibodies) is reported as “does not cause a decrease in the signal even at concentrations of 1 mM”.
For “phosphatidylinositol 4,5-biphosphate [PIP2]”, the “decrease in the signal” value (anti-IP1 antibodies) was “not recognized by the antibody”.
